For assay [1], the target named is Activin receptor type-1-like (Homo sapiens, UniProt P37023). The assay is described as follows: (§1) In Vitro Enzyme Inhibition Using a Biochemical Peptide Phosphorylation Assay- Caliper Assay: Example 54:The assays were performed in 384-well, low volume microtiter assay plates in a final reaction volume of 9 ul.
Another assay has as its target T1, TGF-beta receptor type-1 (Homo sapiens, UniProt P36897).
T1 sequence (P36897 whole entry): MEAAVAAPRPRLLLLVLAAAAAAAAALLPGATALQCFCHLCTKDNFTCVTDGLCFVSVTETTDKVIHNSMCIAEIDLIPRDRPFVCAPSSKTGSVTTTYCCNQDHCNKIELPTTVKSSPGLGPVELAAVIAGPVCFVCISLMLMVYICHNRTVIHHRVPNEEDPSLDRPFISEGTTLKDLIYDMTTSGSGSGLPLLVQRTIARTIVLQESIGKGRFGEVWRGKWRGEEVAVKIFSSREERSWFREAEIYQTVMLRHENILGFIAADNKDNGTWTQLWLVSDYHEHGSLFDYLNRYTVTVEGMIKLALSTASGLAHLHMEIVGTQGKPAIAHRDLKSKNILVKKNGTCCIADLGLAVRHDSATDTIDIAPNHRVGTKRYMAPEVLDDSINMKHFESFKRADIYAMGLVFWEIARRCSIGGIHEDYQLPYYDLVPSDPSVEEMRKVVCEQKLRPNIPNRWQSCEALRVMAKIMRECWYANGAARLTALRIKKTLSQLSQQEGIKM
The assay is described as §1.

The target in assay [2] is T2, Activin receptor type-1 (Homo sapiens, UniProt Q04771).
T2 sequence (Q04771 whole entry): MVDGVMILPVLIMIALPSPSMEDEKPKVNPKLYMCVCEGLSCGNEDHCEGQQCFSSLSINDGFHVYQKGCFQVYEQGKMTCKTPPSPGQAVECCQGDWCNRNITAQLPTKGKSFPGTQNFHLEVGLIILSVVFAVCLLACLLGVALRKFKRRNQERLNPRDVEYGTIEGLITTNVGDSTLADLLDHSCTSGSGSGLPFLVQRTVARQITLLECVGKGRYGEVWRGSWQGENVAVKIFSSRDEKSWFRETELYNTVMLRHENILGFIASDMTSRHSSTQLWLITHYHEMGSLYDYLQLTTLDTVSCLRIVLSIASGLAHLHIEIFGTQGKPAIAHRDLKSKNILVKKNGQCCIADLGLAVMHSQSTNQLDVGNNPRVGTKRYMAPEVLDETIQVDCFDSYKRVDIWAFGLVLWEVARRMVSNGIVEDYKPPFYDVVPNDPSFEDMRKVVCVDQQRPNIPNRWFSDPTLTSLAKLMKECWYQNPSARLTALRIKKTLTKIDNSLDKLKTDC
Described as §1.

In assay [3] the target is T2, Activin receptor type-1. The assay is described as follows: Luminescence-Based ADPGlo Kinase Activity Assay: Example 53: The assays were performed in 384-well, low volume microtiter assay plates in a final reaction volume of 6 ul. Dose-response curves were generated by incubating 10 nM of each kinase in 50 mM Hepes pH 7.5, 0.02% Tween 20, 0.02% BSA, 1 mM DTT, 10 uM Na3VO4, 10 mM ß-Glycerolphosphate, 1 mM MgCl2, 12 mM MnCl2 and 15 uM ATP for 60 min at 32° C. in the presence or absence of compound diluted in DMS. The amount of generated ADP is a measure of kinase activity and is quantified using the ADP-Glo Kinase Assay (Promega) according to manufacturer's instructions. […] and incubation at 32° C. for 60 min. ATP is subsequently converted into a bioluminescent signal by adding 6 ul luciferase assay reagents (Kinase detection buffer+Kinase Detection Substrate (Promega)) and further incubation at 32° C. for 60 min. For the measurement of luminescence a PHERAstar Multilabel Reader was used at a measurement interval time of 0.1 second (optical module for luminescence measurements in the 230 nm to 750 nm wavelength range). The luminescent signal positively correlates with kinase activity. For orientation: ADP-Glo turns the ADP formed in a reaction into a luminescent signal.

Assay [4] concerns the target Bone morphogenetic protein receptor type-1B (Homo sapiens, UniProt O00238). The assay is described as follows: In Vitro Enzyme Inhibition Using a Biochemical Peptide Phosphorylation Assay- Caliper Assay: Example 54:The assays were performed in 384-well, low volume microtiter assay plates in a final reaction volume of 9 ul. Dose-response curves were generated by incubating 10 nM of each kinase together with 2 uM of the fluorescently labeled substrate peptide 5-Fluo-Ahx-KKYQAEEN-T-YDEYENKK-amid (10 mM stock ….

Assay [5] deals with Bone morphogenetic protein receptor type-1A (Homo sapiens, UniProt P36894). Kind of assay: Luminescence-Based ADPGlo Kinase Activity Assay: Example 53: The assays were performed in 384-well, low volume microtiter assay plates in a final reaction volume of 6 ul. Dose-response curves were generated by incubating 10 nM of each kinase in 50 mM Hepes pH 7.5, 0.02% Tween 20, 0.02% BSA, 1 mM DTT, 10 uM Na3VO4, 10 mM ß-Glycerolphosphate, 1 mM MgCl2, 12 mM MnCl2 and 15 uM ATP for 60 min at 32° ….
Bone morphogenetic protein receptor type-1A, sequence (P36894 whole entry): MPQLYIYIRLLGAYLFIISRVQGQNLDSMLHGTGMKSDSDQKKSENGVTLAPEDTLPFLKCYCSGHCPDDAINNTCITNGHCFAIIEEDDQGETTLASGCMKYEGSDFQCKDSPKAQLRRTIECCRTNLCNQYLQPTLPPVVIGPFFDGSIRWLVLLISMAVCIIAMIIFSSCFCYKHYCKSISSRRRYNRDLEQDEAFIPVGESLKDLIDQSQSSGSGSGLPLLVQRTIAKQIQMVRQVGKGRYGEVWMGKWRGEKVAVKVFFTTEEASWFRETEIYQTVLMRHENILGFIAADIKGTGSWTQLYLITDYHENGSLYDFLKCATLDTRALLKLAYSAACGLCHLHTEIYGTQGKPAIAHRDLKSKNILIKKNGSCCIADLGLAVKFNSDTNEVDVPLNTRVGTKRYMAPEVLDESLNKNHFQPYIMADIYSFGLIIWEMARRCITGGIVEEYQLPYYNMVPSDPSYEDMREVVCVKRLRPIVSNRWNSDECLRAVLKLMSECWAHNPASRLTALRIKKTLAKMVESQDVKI
Description: The amount of generated ADP is a measure of kinase activity and is quantified using the ADP-Glo Kinase Assay (Promega) according to manufacturer's instructions. ADP is converted to ATP by adding 3 ul of ADP-Glo Reagent and incubation at 32° C. for 60 min. ATP is subsequently converted into a bioluminescent signal by adding 6 ul luciferase assay reagents (Kinase detection buffer+Kinase Detection Substrate (Promega)) and further incubation at 32° C. for 60 min. […] The luminescent signal positively correlates with kinase activity.

Bone morphogenetic protein receptor type-1B, sequence (O00238 whole entry): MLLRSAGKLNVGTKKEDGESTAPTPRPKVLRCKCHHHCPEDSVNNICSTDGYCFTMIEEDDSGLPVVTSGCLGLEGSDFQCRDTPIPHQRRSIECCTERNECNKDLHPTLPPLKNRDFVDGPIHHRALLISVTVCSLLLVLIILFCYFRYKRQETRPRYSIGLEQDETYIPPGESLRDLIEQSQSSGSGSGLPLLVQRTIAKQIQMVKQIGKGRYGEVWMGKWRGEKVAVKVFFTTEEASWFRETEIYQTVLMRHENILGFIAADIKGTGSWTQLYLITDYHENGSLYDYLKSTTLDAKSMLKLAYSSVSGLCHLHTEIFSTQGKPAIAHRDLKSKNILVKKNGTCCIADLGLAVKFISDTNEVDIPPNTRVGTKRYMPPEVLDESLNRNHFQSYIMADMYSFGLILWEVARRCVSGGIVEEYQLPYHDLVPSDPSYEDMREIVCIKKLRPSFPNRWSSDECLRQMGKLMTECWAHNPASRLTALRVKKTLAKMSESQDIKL
Activin receptor type-1-like, sequence (P37023 whole entry): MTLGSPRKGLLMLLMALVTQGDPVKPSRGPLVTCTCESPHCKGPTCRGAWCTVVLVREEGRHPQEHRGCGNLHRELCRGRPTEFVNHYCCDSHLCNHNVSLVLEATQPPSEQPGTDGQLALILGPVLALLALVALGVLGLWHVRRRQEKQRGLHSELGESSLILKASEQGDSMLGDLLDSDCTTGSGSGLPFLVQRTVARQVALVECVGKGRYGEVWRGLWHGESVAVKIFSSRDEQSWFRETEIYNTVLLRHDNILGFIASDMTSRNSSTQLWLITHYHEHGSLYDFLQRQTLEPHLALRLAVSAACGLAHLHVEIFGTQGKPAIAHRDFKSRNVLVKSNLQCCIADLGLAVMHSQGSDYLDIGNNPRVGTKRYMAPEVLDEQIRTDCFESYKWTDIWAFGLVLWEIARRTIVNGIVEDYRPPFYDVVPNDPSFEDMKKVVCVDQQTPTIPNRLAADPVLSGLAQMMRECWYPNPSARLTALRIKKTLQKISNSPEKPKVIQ

Consider `CC(C)CN1c2ccc(-c3cncc(-c4ccc(=O)n(C(C)C)c4)c3)cc2CS1(=O)=O`, for which the 50% inhibitory concentration (IC50) (commonly the concentration that gives 50% inhibition) in assay [1] stood at 690 nM; on TGF-beta receptor type-1, 2400 nM; against Activin receptor type-1 [2], 160 nM; on Activin receptor type-1 [3] it was 110 nM; in assay [4] it was 1200 nM; in assay [5], 930 nM.

For the origin of these results see ChEMBL document CHEMBL5728775, “Pyridinone derivatives and their use as selective ALK-2 inhibitors” (2021).
